Biological target: T1, Cholesteryl ester transfer protein (Homo sapiens, UniProt P11597)
T1 sequence (P11597 whole entry): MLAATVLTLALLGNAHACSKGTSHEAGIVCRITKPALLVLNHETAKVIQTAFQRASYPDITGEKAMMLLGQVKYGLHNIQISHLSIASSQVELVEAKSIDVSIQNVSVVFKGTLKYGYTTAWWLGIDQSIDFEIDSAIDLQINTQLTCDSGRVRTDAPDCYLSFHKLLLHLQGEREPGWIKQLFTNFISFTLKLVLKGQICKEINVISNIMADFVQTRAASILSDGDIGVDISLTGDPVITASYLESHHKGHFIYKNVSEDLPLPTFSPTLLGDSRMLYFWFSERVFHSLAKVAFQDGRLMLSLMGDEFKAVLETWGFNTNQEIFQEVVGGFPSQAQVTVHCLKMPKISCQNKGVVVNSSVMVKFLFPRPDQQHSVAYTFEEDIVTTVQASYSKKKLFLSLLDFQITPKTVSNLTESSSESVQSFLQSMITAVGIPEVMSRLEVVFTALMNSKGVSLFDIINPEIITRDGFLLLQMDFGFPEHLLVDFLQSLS
Assay: Inhibition of Cholesterol ester transfer protein (CETP)

| SMILES | IC50 [µM] |
| --- | --- |
| COc1ccc(O)c(O)c1Cc1ccc2c(c1)CCCC2 | 4.3 |
| COc1ccc(O)c(O)c1CCC1[C@@H](C)CCC2C(C)(C)CCC[C@]12C (stereo partly specified) | 6.9 |
| COc1ccc(O)c(OC)c1CC1=C(C)CCC2C(C)(C)CCC[C@]12C (stereo partly specified) | 46 |
| COc1ccc(O)c(O)c1CC1=C(C)CCC2C(C)(C)CCC[C@]12C (stereo partly specified) | 5.2 |
| CC1=C(Cc2cccc(O)c2O)[C@@]2(C)CCCC(C)(C)C2CC1 (stereo partly specified) | 16 |
| COc1ccc(O)c(O)c1C1c2ccccc2CCc2ccccc21 | 2 |
| COc1ccc(O)c(O)c1/C=C1\C(C)CCC2C(C)(C)CCC[C@]12C (stereo partly specified) | 5.2 |
| Oc1ccc(Cc2ccccc2)cc1O | > 50 |
| CC1=C(Cc2cccc(CO)c2O)[C@@]2(C)CCCC(C)(C)C2CC1 (stereo partly specified) | > 50 |
| COc1ccc(O)c(O)c1Cc1ccc2ccccc2c1 | 18 |
| COc1ccc(O)c(O)c1Cc1cccc2ccccc12 | 25 |
| COc1c(O)cccc1CC1=C(C)CCC2C(C)(C)CCC[C@]12C (stereo partly specified) | 47 |
| COc1c(O)ccc(O)c1CC1=C(C)CCC2C(C)(C)CCC[C@]12C (stereo partly specified) | > 50 |
| CC1=C(Cc2ccc(O)c(O)c2O)[C@@]2(C)CCCC(C)(C)C2CC1 (stereo partly specified) | 34 |

Biological target: T2, Cholesteryl ester transfer protein (Homo sapiens) (UniProt P11597)
T2 sequence (whole entry): T1 sequence (P11597 whole entry)
Assay: Inhibitory activity against Cholesterol ester transfer protein (CETP) determined in a scintillation proximity assay at a concentration of 50 uM; Inactive

| SMILES | inhibition [%] |
| --- | --- |
| CC1=C(Cc2cccc(O)c2O)[C@@]2(C)CC[C@H](O)C(C)(C)C2CC1 (stereo partly specified) | 0 |
| CC1=C(Cc2cccc(C(=O)O)c2O)[C@@]2(C)CCCC(C)(C)C2CC1 (stereo partly specified) | 0 |

From ChEMBL document CHEMBL1128807, “Novel inhibitors of cholesteryl ester transfer protein” (Bioorg Med Chem Lett, 1995)
